Measurements from ChEMBL document CHEMBL1909576, “Continued exploration of biphenylsulfonamide scaffold as a platform for aggrecanase-1 inhibition” (Bioorg Med Chem Lett, 2011).
Converted amounts (≈) assume the structure as drawn.

Experiments:
[1] = target: T1, A disintegrin and metalloproteinase with thrombospondin motifs 4 (Homo sapiens, UniProt O75173); assay: Inhibition of aggrecanase-1
T1 sequence (O75173 whole entry): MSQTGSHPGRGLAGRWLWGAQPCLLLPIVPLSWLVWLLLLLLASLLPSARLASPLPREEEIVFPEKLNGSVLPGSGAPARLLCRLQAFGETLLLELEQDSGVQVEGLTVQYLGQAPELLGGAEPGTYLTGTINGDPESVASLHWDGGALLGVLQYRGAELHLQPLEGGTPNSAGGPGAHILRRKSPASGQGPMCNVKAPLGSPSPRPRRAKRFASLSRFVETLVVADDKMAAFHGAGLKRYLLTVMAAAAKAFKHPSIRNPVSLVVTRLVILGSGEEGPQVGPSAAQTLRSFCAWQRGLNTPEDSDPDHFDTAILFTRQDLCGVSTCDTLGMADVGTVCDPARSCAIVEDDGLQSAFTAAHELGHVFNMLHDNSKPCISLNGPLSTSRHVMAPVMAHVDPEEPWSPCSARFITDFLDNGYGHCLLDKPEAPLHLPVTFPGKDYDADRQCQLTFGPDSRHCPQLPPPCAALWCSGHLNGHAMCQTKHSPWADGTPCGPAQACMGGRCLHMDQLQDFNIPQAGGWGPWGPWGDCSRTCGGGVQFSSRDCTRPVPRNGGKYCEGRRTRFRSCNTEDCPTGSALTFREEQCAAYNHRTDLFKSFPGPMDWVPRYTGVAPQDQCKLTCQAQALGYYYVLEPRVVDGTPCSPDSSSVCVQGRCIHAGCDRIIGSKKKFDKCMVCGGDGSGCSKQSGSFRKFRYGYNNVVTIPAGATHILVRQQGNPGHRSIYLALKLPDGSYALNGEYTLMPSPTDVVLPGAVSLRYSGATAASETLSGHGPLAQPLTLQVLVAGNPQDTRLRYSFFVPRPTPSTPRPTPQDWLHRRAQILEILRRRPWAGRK

Collagenase 3 = Collagenase 3 (Homo sapiens, UniProt P45452); assay: Inhibition of MMP13
[2] = Solubility of the compound at pH 7.4; type: physicochemical; settings: buffer
[3] = Clearance in Sprague-Dawley rat; type: ADME, organism-based; settings: in vivo
[4] = Half life in Sprague-Dawley rat; type: ADME, organism-based; settings: in vivo
[5] = Bioavailability in Sprague-Dawley rat; type: ADME, organism-based; settings: in vivo
[6] = Permeability across human Caco2 cells; type: ADME, cell-based; settings: Caco-2, read-out: permeability

SMILES | IC50 [1] | IC50 (Collagenase 3) | solubility [2] | clearance [3] | half-life [4] | bioavailability [5] | Papp [6]
CC(C)[C@@H](NS(=O)(=O)c1ccc(-c2ccc(OCc3ccccc3C#N)cc2)cc1)C(=O)O | 15000 nM | 4.6 nM | > 100 µg/mL | 1.07 mL/min/kg | 6 h | 23% | –
CC(C)[C@@H](NS(=O)(=O)c1ccc(-c2ccc(OCc3cccc(C#N)c3)cc2)cc1)C(=O)O | 800 nM | 0.1 nM | 53 µg/mL (≈ 114 µM) | – | 7 h | – | 0.8 ×10⁻⁶ cm/s
